Laboratory results reported in patent publication US20200316083A1, “ANTIBACTERIAL COMPOSITIONS” (WOCKHARDT LIMITED, priority 2016, published 2020).

How the values were obtained:
Format in all cases: cell-based
[1] = system: E. coli 7MP producing Class A and Class C beta-lactamase enzymes; test: Time kill study against E. coli 7MP; details: for Effect on bacterial count (in words): alone or in combination
Experimental: (§1) In general, the antibacterial activity of compositions according to invention was studied by performing time kill studies. In a typical time kill study, the freshly grown cultures were diluted to the required cell density (initial starting inoculum) in cation adjusted Muller Hinton broth medium (BD, USA). The antibacterial agents (either alone or in combination) at the required concentrations were added into the culture-containing medium. The samples were incubated under shaking condition (120 rpm) at 37° C. Enumeration of viable bacterial count was done every 2 hour by diluting in normal saline and plating on to the Tryptic Soya Agar plates (BD, USA). The plates were incubated for 24 hours to arrive at a viable bacterial count. The results are expressed in terms of log10 CFU/ml. In general, the decrease of 1 log10 CFU/ml corresponds to 90% killing of bacteria. Similarly, 2 log10 CFU/ml reductions indicates to 99% killing of bacteria and 3 log10 CFU/ml reductions is equal to 99.9% killing of bacteria.

[2] = system: K. pneumoniae B-88 producing metallo beta-lactamase enzymes; test: Time kill study against K. pneumoniae B-88; details: for Effect on bacterial count (in words): summary of Table 1, alone or in combination
Experimental: as §1

[3] = system: A. baumanni 13301 producing Carbapenem hydrolysing beta-lactamase enzymes; test: Time kill study against A. baumanni 13301; details: for Bacterial count (Log10 CFU/ml) 0 hours / Change in Log10 CFU/ml over 0 hour count after 24 hours / Bacterial count (Log10 CFU/ml) 2 hours / Bacterial count (Log10 CFU/ml) 4 hours / Bacterial count (Log10 CFU/ml) 6 hours / Bacterial count (Log10 CFU/ml) 8 hours / Bacterial count (Log10 CFU/ml) 24 hours: 4 mcg/ml alone; for Effect on bacterial count (in words): summary of Table 3, alone or in combination
Experimental: as §1

[4] = summary of Table 5, throughout the duration of the study

SMILES | Change in Log10 CFU/ml over 0 hour count after 8 hours ([1]; Table 5, 4 mcg/ml alone) [Log10 CFU/ml] | Bacterial count (Log10 CFU/ml) 2 hours ([1]; Table 5, 4 mcg/ml alone) [Log10 CFU/ml] | Bacterial count (Log10 CFU/ml) 4 hours ([1]; Table 5, 4 mcg/ml alone) [Log10 CFU/ml] | Bacterial count (Log10 CFU/ml) 6 hours ([1]; Table 5, 4 mcg/ml alone) [Log10 CFU/ml] | Bacterial count (Log10 CFU/ml) 0 hours ([2]; 2 mcg/ml alone) [Log10 CFU/ml] | Change in Log10 CFU/ml over 0 hour count after 24 hours ([2]; 2 mcg/ml alone) [Log10 CFU/ml] | Bacterial count (Log10 CFU/ml) 2 hours ([2]; 2 mcg/ml alone) [Log10 CFU/ml] | Bacterial count (Log10 CFU/ml) 4 hours ([2]; 2 mcg/ml alone) [Log10 CFU/ml] | Bacterial count (Log10 CFU/ml) 6 hours ([2]; 2 mcg/ml alone) [Log10 CFU/ml] | Bacterial count (Log10 CFU/ml) 24 hours ([2]; 2 mcg/ml alone) [Log10 CFU/ml] | Effect on bacterial count (in words) [2] | Bacterial count (Log10 CFU/ml) 0 hours [3] [Log10 CFU/ml] | Change in Log10 CFU/ml over 0 hour count after 24 hours [3] [Log10 CFU/ml] | Bacterial count (Log10 CFU/ml) 2 hours [3] [Log10 CFU/ml] | Bacterial count (Log10 CFU/ml) 4 hours [3] [Log10 CFU/ml] | Bacterial count (Log10 CFU/ml) 6 hours [3] [Log10 CFU/ml] | Bacterial count (Log10 CFU/ml) 8 hours [3] [Log10 CFU/ml] | Bacterial count (Log10 CFU/ml) 24 hours [3] [Log10 CFU/ml] | Effect on bacterial count (in words) [3] | Effect on bacterial count (in words) ([1]; summary of Table 2) | also measured
NC(=O)[C@@H]1CC[C@@H]2CN1C(=O)N2OS(=O)(=O)O [Avibactam, reference compound] | 2.28 | 7.90 | 9.23 | 9.30 |  |  |  |  |  |  |  |  |  |  |  |  |  |  |  |  | Bacterial count (Log10 CFU/ml) 8 hours ([1]; Table 5, 4 mcg/ml alone): 9.36 Log10 CFU/ml; Effect on bacterial count (in words) [1, 4]: did not reduce the bacterial count
O=C(O)[C@H]1/C(=C/CO)O[C@@H]2CC(=O)N21 [Clavulanic acid, reference compound] | 2.28 | 7.90 | 9.23 | 9.30 |  |  |  |  |  |  |  |  |  |  |  |  |  |  |  |  | Bacterial count (Log10 CFU/ml) 8 hours ([1]; Table 5, 4 mcg/ml alone): 9.36 Log10 CFU/ml; Effect on bacterial count (in words) [1, 4]: did not reduce the bacterial count
N#C[C@@H]1CC[C@@H]2CN1C(=O)N2OS(=O)(=O)O [Compound (B)] |  |  |  |  | 7.28 | 2.12 | 8.27 | 9.04 | 9.18 | 9.40 | could not reduce the bacterial count | 6.88 | 2.16 | 8.04 | 8.74 | 8.90 | 9.20 | 9.04 | could not reduce the bacterial count | could not reduce the bacterial count | Change in Log10 CFU/ml over 0 hour count after 24 hours ([1]; Table 2, 4 mcg/ml alone): 2.28 Log10 CFU/ml; Bacterial count (Log10 CFU/ml) 2 hours ([1]; Table 2, 4 mcg/ml alone): 7.90 Log10 CFU/ml; Bacterial count (Log10 CFU/ml) 4 hours ([1]; Table 2, 4 mcg/ml alone): 9.23 Log10 CFU/ml; Bacterial count (Log10 CFU/ml) 6 hours ([1]; Table 2, 4 mcg/ml alone): 9.30 Log10 CFU/ml; Bacterial count (Log10 CFU/ml) 24 hours ([1]; Table 2, 4 mcg/ml alone): 9.36 Log10 CFU/ml
O=C(NNC(=O)[C@@H]1CC[C@@H]2CN1C(=O)N2OS(=O)(=O)O)[C@@H]1CCCNC1 [Compound (C)] |  |  |  |  | 7.28 | 1.26 | 7.60 | 8.26 | 8.18 | 8.54 | could not reduce the bacterial count | 6.88 | 2.35 | 8.13 | 8.85 | 9.19 | 9.02 | 9.23 | could not reduce the bacterial count | could not reduce the bacterial count | Change in Log10 CFU/ml over 0 hour count after 24 hours ([1]; Table 2, 2 mcg/ml alone): −3.54 Log10 CFU/ml; Bacterial count (Log10 CFU/ml) 2 hours ([1]; Table 2, 2 mcg/ml alone): 6.30 Log10 CFU/ml; Bacterial count (Log10 CFU/ml) 4 hours ([1]; Table 2, 2 mcg/ml alone): 4.93 Log10 CFU/ml; Bacterial count (Log10 CFU/ml) 6 hours ([1]; Table 2, 2 mcg/ml alone): 4.23 Log10 CFU/ml; Bacterial count (Log10 CFU/ml) 24 hours ([1]; Table 2, 2 mcg/ml alone): 3.54 Log10 CFU/ml
O=C(NOC[C@@H]1CCCN1)[C@@H]1CC[C@@H]2CN1C(=O)N2OS(=O)(=O)O [Compound (D)] |  |  |  |  | 7.28 | 1.26 | 7.60 | 8.26 | 8.18 | 8.54 | could not reduce the bacterial count | 6.88 | 2.07 | 7.98 | 8.60 | 9.00 | 9.04 | 8.95 | could not reduce the bacterial count | could not reduce the bacterial count | Change in Log10 CFU/ml over 0 hour count after 24 hours ([1]; Table 2, 2 mcg/ml alone): 0.22 Log10 CFU/ml; Bacterial count (Log10 CFU/ml) 2 hours ([1]; Table 2, 2 mcg/ml alone): 7.65 Log10 CFU/ml; Bacterial count (Log10 CFU/ml) 4 hours ([1]; Table 2, 2 mcg/ml alone): 7.30 Log10 CFU/ml; Bacterial count (Log10 CFU/ml) 6 hours ([1]; Table 2, 2 mcg/ml alone): 7.78 Log10 CFU/ml; Bacterial count (Log10 CFU/ml) 24 hours ([1]; Table 2, 2 mcg/ml alone): 7.30 Log10 CFU/ml
NCCONC(=O)[C@@H]1CC[C@@H]2CN1C(=O)N2OS(=O)(=O)O [Compound (E)] |  |  |  |  | 7.28 | 1.26 | 7.60 | 8.26 | 8.18 | 8.54 | could not reduce the bacterial count | 6.88 | 2.16 | 8.04 | 8.74 | 8.90 | 9.20 | 9.04 | could not reduce the bacterial count | could not reduce the bacterial count | Change in Log10 CFU/ml over 0 hour count after 24 hours ([1]; Table 2, 2 mcg/ml alone): 2.22 Log10 CFU/ml; Bacterial count (Log10 CFU/ml) 2 hours ([1]; Table 2, 2 mcg/ml alone): 8.02 Log10 CFU/ml; Bacterial count (Log10 CFU/ml) 4 hours ([1]; Table 2, 2 mcg/ml alone): 9.15 Log10 CFU/ml; Bacterial count (Log10 CFU/ml) 6 hours ([1]; Table 2, 2 mcg/ml alone): 9.11 Log10 CFU/ml; Bacterial count (Log10 CFU/ml) 24 hours ([1]; Table 2, 2 mcg/ml alone): 9.30 Log10 CFU/ml
C[C@@H](O)[C@H]1C(=O)N2C(C(=O)O)=C(SCCN=CN)C[C@H]12 [Imipenem, reference compound] |  |  |  |  |  |  |  |  |  |  |  |  |  |  |  |  |  |  |  |  | Bacterial count (Log10 CFU/ml) 0 hours ([2]; 8 mcg/ml alone): 7.28 Log10 CFU/ml; Change in Log10 CFU/ml over 0 hour count after 24 hours ([2]; 8 mcg/ml alone): 2.02 Log10 CFU/ml; Bacterial count (Log10 CFU/ml) 2 hours ([2]; 8 mcg/ml alone): 8.04 Log10 CFU/ml; Bacterial count (Log10 CFU/ml) 4 hours ([2]; 8 mcg/ml alone): 8.65 Log10 CFU/ml; Bacterial count (Log10 CFU/ml) 6 hours ([2]; 8 mcg/ml alone): 9.20 Log10 CFU/ml; Bacterial count (Log10 CFU/ml) 24 hours ([2]; 8 mcg/ml alone): 9.30 Log10 CFU/ml
C[C@]1(Cn2ccnn2)[C@H](C(=O)O)N2C(=O)C[C@H]2S1(=O)=O [Tazobactam, reference compound] | 2.28 | 7.90 | 9.23 | 9.30 |  |  |  |  |  |  |  |  |  |  |  |  |  |  |  |  | Bacterial count (Log10 CFU/ml) 8 hours ([1]; Table 5, 4 mcg/ml alone): 9.36 Log10 CFU/ml; Effect on bacterial count (in words) [1, 4]: did not reduce the bacterial count
